The target of one assay is human CXCR3A (Homo sapiens (Human), UniProt P49682). Briefly: FLIPR assay. It counts as cell-based. As to conditions: CHO-K1 cells expressing the human CXCR3A coupled to Galpha(16); CXCL10 agonist 20 nM; Fluo-4-AM fluorescence; mean values if determined several times. In short, it runs like this: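 CHO-K1 cells expressing CXCR3A coupled to Gα16 were loaded with Fluo-4-AM for 1 h in Hepes-buffered HBSS, pH 7.4, with 5 mM probenecid. Compound dilutions were added on the FLIPR, followed by CXCL10 (added as a 20 nM solution). Baseline-subtracted peak fluorescence was fitted to a single-site curve for IC50.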
human CXCR3A, sequence (P49682 whole entry): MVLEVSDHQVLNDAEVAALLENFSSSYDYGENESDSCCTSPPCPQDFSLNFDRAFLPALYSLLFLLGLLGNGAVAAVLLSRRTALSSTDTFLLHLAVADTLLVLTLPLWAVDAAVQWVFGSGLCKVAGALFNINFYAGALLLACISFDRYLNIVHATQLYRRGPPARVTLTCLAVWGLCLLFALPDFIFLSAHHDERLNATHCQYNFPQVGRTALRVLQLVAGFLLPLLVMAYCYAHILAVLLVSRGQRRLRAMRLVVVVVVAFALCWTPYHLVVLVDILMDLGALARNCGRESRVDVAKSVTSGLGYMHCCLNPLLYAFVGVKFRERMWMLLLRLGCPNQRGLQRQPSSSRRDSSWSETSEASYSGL

Another assay deals with CXCR3 (Homo sapiens (Human), UniProt P49682). Briefly: Receptor internalization assay. It counts as cell-based. Particulars: human whole blood; final CXCL10 concentration 9 nM; 30 min 37° C.; CXCR3 cell surface expression on CD3 positive cells, flow cytometer; read-out: Internalization IC50. In short, it runs like this:
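In human whole blood, compounds were incubated with CXCL10 (9 nM final) for 30 min at 37 °C to drive receptor internalization, then stained with anti-CXCR3/CD3 antibodies and lysed of red cells. Flow cytometry measured mean surface CXCR3 fluorescence on CD3+ cells, and IC50 came from single-site dose-response fits.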
On the technique in general: A flow cytometer gives signals particle by particle.

CXCR3, sequence (P49682 whole entry): as above

Regarding `O=C(Cn1ccc2ccc(Cl)nc21)N1CCN(c2scnc2-c2nc3ccccc3[nH]2)CC1` [Example 65, 1-{4-[4-(1H-Benzoimidazol-2-yl)-thiazol-5-yl]-piperazin-1-yl}-2-(6-chloro-pyrrolo[2,3-b]pyridin-1-yl)-ethanone], the IC50 (usually the midpoint of a concentration-inhibition curve) at human CXCR3A stood at 3 nM; on CXCR3 it was 816 nM.
For the compound `CCc1ccc2nc(-c3ncsc3N3CCN(C(=O)Cn4cnc5cccnc54)[C@H](C)C3)[nH]c2c1` [Example 99, 1-{(R)-4-[4-(6-Ethyl-1H-benzoimidazol-2-yl)-thiazol-5-yl]-2-methyl-piperazin-1-yl}-2-imidazo[4,5-b]pyridin-3-yl-ethanone], the IC50 is 1 nM on human CXCR3A and 221 nM on CXCR3.
Turning to `C[C@@H]1CN(c2sc(C(F)(F)F)nc2-c2nc3cc(OCCO)ccc3[nH]2)CCN1C(=O)Cn1cnc2cccnc21` [Example 164, 1-((R)-4-{4-[5-(2-Hydroxy-ethoxy)-1H-benzoimidazol-2-yl]-2-trifluoromethyl-thiazol-5-yl}-2-methyl-piperazin-1-yl)-2-imidazo[4,5-b]pyridin-3-yl-ethanone], the IC50 at human CXCR3A came to 1 nM; on CXCR3 it was 93 nM.
Taken in the same sequence, the figures for `O=C(Cn1ncc2ccccc21)N1CCN(c2scnc2-c2nc3ccccc3[nH]2)CC1` [Example 109, 1-{4-[4-(1H-Benzoimidazol-2-yl)-thiazol-5-yl]-piperazin-1-yl}-2-indazol-1-yl-ethanone] were 16 nM and 1970 nM.
`CC[C@@H]1CN(c2scnc2-c2nc3ccccc3[nH]2)CCN1C(=O)Cn1ccc2cccnc21` [Example 18, 1-{(R)-4-[4-(1H-Benzoimidazol-2-yl)-thiazol-5-yl]-2-ethyl-piperazin-1-yl}-2-pyrrolo[2,3-b]pyridin-1-yl-ethanone]: the figures for the 50% inhibitory concentration (IC50) at human CXCR3A and on CXCR3 were 1 nM and 2420 nM, respectively.
For `C[C@@H]1CN(c2scnc2-c2nc3cc(Cl)ccc3[nH]2)CCN1C(=O)Cn1c(=O)oc2ccccc21` [Example 84, 3-(2-{(R)-4-[4-(5-Chloro-1H-benzoimidazol-2-yl)-thiazol-5-yl]-2-methyl-piperazin-1-yl}-2-oxo-ethyl)-3H-benzooxazol-2-one], in that order: 1 nM and 517 nM.
For `C[C@@H]1CN(c2sc(C(F)(F)F)nc2-c2nc3ccccc3[nH]2)CCN1C(=O)Cn1cc(-c2ccccc2)nn1` [Example 189, 1-{(R)-4-[4-(1H-Benzoimidazol-2-yl)-2-trifluoromethyl-thiazol-5-yl]-2-methyl-piperazin-1-yl}-2-(4-phenyl-[1,2,3]triazol-1-yl)-ethanone], in that order: 2 nM and 1760 nM.
In the case of `O=C(Cn1ccc2cc(F)ccc21)N1CCN(c2scnc2-c2nc3ccccc3[nH]2)CC1` [Example 55, 1-{4-[4-(1 H-Benzoimidazol-2-yl)-thiazol-5-yl]-piperazin-1-yl}-2-(5-fluoro-indol-1-yl)-ethanone], the IC50 on human CXCR3A worked out at 4 nM; at CXCR3, 1660 nM.
For the compound `C[C@@H]1CN(c2sc(C(F)(F)F)nc2-c2nc3ccccc3[nH]2)CCN1C(=O)Cc1ccccc1N1CCN(C)CC1` [Example 208, 1-{(R)-4-[4-(1H-Benzoimidazol-2-yl)-2-trifluoromethyl-thiazol-5-yl]-2-methyl-piperazin-1-yl}-2-[2-(4-methyl-piperazin-1-yl)-phenyl]-ethanone], the half-inhibitory concentration (IC50) on human CXCR3A was 1 nM; on CXCR3, 310 nM.
As for `C[C@@H]1CN(c2sc(C(F)(F)F)nc2-c2nc3ccc(CO)cc3[nH]2)CCN1C(=O)Cn1cnc2cccnc21` [Example 160, 1-{(R)-4-[4-(6-Hydroxymethyl-1H-benzoimidazol-2-yl)-2-trifluoromethyl-thiazol-5-yl]-2-methyl-piperazin-1-yl}-2-imidazo[4,5-b]pyridin-3-yl-ethanone], the 50% inhibitory concentration (IC50) on human CXCR3A amounted to 2 nM; at CXCR3 it was 92 nM.
For `Cn1c(=O)n(CC(=O)N2CCN(c3scnc3-c3nc4ccc(OC(F)(F)F)cc4[nH]3)CC2)c2ccccc21` [Example 74, 1-Methyl-3-(2-oxo-2-{4-[4-(6-trifluoromethoxy-1H-benzoimidazol-2-yl)-thiazol-5-yl]-piperazin-1-yl}-ethyl)-1,3-dihydro-benzoimidazol-2-one], in that order: 2 nM and 1040 nM.
Take `C[C@@H]1CN(c2sc(C(F)(F)F)nc2-c2nc3ccccc3[nH]2)CCN1C(=O)Cn1nccc1-c1ccccc1` [Example 204, 1-{(R)-4-[4-(1H-Benzoimidazol-2-yl)-2-trifluoromethyl-thiazol-5-yl]-2-methyl-piperazin-1-yl}-2-(5-phenyl-pyrazol-1-yl)-ethanone]: the figures for the IC50 at human CXCR3A and at CXCR3 were 6 nM and 4180 nM, respectively.
Regarding `C[C@@H]1CN(c2sc(C(F)(F)F)nc2-c2nc3ccccc3[nH]2)CCN1C(=O)Cn1cnc2c1CCN(C)C2` [Example 209, 1-{(R)-4-[4-(1H-Benzoimidazol-2-yl)-2-trifluoromethyl-thiazol-5-yl]-2-methyl-piperazin-1-yl}-2-(5-methyl-4,5,6,7-tetrahydro-imidazo[4,5-c]pyridin-1-yl)-ethanone], the IC50 on human CXCR3A came out at 3 nM; at CXCR3, 101 nM.
For `C[C@@H]1CN(c2scnc2-c2nc3ccccc3[nH]2)CCN1C(=O)Cn1cnc2cnccc21` [Example 138, 1-{(R)-4-[4-(1H-Benzoimidazol-2-yl)-thiazol-5-yl]-2-methyl-piperazin-1-yl}-2-imidazo[4,5-c]pyridin-1-yl-ethanone], in that order: 4 nM and 1090 nM.
Taken in the same sequence, the figures for `C[C@@H]1CN(c2scnc2-c2nc3ccccc3[nH]2)CCN1C(=O)Cc1noc2ccccc12` [Example 130, 2-Benzo[d]isoxazol-3-yl-1-{(R)-4-[4-(1H-benzoimidazol-2-yl)-thiazol-5-yl]-2-methyl-piperazin-1-yl}-ethanone] were 3 nM and 2670 nM.
Consider `Cc1ccc(-c2nc(-c3nc4ccccc4[nH]3)c(N3CCN(C(=O)Cn4cnc5cccnc54)[C@H](C)C3)s2)cc1` [Example 150, 1-{(R)-4-[4-(1H-Benzoimidazol-2-yl)-2-p-tolyl-thiazol-5-yl]-2-methyl-piperazin-1-yl}-2-imidazo[4,5-b]pyridin-3-yl-ethanone], for which the IC50 on human CXCR3A amounted to 45 nM; at CXCR3, 5680 nM.
For `CC(O)c1nc(-c2nc3ccccc3[nH]2)c(N2CCN(C(=O)Cn3ccc4cccnc43)CC2)s1` (racemic) [Example 43, rac-1-{4-[4-(1H-Benzoimidazol-2-yl)-2-(1-hydroxy-ethyl)-thiazol-5-yl]-piperazin-1-yl}-2-pyrrolo[2,3-b]pyridin-1-yl-ethanone], in that order: 55 nM and 4090 nM.
For `C[C@@H]1CN(c2sc(C(F)(F)F)nc2-c2nc3ccccc3[nH]2)CCN1C(=O)Cn1cnc2ccccc21` [Example 172, 2-Benzoimidazol-1-yl-1-{(R)-4-[4-(1H-benzoimidazol-2-yl)-2-trifluoromethyl-thiazol-5-yl]-2-methyl-piperazin-1-yl}-ethanone], in that order: 1 nM and 73 nM.
Taken in the same sequence, the figures for `C[C@@H]1CN(c2sc(C(F)(F)F)nc2-c2nc3ccccc3n2C)CCN1C(=O)Cn1cccn1` [Example 184, 1-{(R)-2-Methyl-4-[4-(1-methyl-1H-benzoimidazol-2-yl)-2-trifluoromethyl-thiazol-5-yl]-piperazin-1-yl}-2-pyrazol-1-yl-ethanone] were 53 nM and 3420 nM.
Consider `C[C@@H]1CN(c2sc(C(F)(F)F)nc2-c2nc3ccccc3[nH]2)CCN1C(=O)Cn1cc(C2CCN(C)CC2)cn1` [Example 222, 1-{(R)-4-[4-(1H-Benzoimidazol-2-yl)-2-trifluoromethyl-thiazol-5-yl]-2-methyl-piperazin-1-yl}-2-[4-(1-methyl-piperidin-4-yl)-pyrazol-1-yl]-ethanone], for which the values for the IC50 on human CXCR3A and on CXCR3 were 16 nM and 1500 nM, respectively.
Taken in the same sequence, the figures for `C[C@@H]1CN(c2sc(C(F)(F)F)nc2-c2nc3ccccc3[nH]2)CCN1C(=O)Cn1nccn1` [Example 197, 1-{(R)-4-[4-(1H-Benzoimidazol-2-yl)-2-trifluoromethyl-thiazol-5-yl]-2-methyl-piperazin-1-yl}-2-[1,2,3]triazol-2-yl-ethanone] were 8 nM and 5310 nM.
Taken in the same sequence, the figures for `Cc1nc(C)n(CC(=O)N2CCN(c3sc(C(F)(F)F)nc3-c3nc4cc(CCN)ccc4[nH]3)C[C@H]2C)n1` [Example 239, 1-((R)-4-{4-[5-(2-Amino-ethyl)-1H-benzoimidazol-2-yl]-2-trifluoromethyl-thiazol-5-yl}-2-methyl-piperazin-1-yl)-2-(3,5-dimethyl-[1,2,4]triazol-1-yl)-ethanone] were 0.1 nM and 324 nM.
Consider `C[C@@H]1CN(c2scnc2-c2nc3ccccc3[nH]2)CCN1C(=O)Cn1c(=O)oc2cccc(F)c21` [Example 153, 3-(2-{(R)-4-[4-(1H-Benzoimidazol-2-yl)-thiazol-5-yl]-2-methyl-piperazin-1-yl}-2-oxo-ethyl)-4-fluoro-3H-benzooxazol-2-one], for which the IC50 at human CXCR3A came to 7 nM; on CXCR3, 1030 nM.
Turning to `Cc1nc(C)n(CC(=O)N2CCN(c3sc(C(F)(F)F)nc3-c3nc4ccc(-c5noc(C)n5)cc4[nH]3)C[C@H]2C)n1` [Example 236, 2-(3,5-Dimethyl-[1,2,4]triazol-1-yl)-1-((R)-2-methyl-4-{4-[6-(5-methyl-[1,2,4]oxadiazol-3-yl)-1H-benzoimidazol-2-yl]-2-trifluoromethyl-thiazol-5-yl}-piperazin-1-yl)-ethanone], the concentration for half-maximal inhibition (IC50) on human CXCR3A is 3 nM; at CXCR3 it was 265 nM.

These data come from patent US9266876B2 (Actelion Pharmaceuticals Ltd., priority 2012, dated 2016).
